Measured values as given in ChEMBL document CHEMBL3045393, “Aryldiones incorporating a [1,4,5]oxadiazepane ring. Part I: Discovery of the novel cereal herbicide pinoxaden” (Bioorg Med Chem, 2009).

Key:
[1] = tested on: Alopecurus myosuroides; test: Post-emergence herbicidal activity against Alopecurus myosuroides at 30 g a.i./ha measured after 21 days in presence of 1% Merge adjuvant; assay type: functional
[2] = tested on: Setaria faberi; test: Post-emergence herbicidal activity against Setaria faberi (Giant Foxtail) at 30 g a.i./ha measured after 21 days in presence of 1% Merge adjuvant; assay type: functional
[3] = tested on: Lolium perenne; test: Post-emergence herbicidal activity against Lolium perenne (perennial ryegrass) at 30 g a.i./ha measured after 21 days in presence of 1% Merge adjuvant; assay type: functional
[4] = tested on: Avena fatua; test: Post-emergence herbicidal activity against Avena fatua at 30 g a.i./ha measured after 21 days in presence of 1% Merge adjuvant; assay type: functional
[5] = tested on: Triticum aestivum; test: Phytotoxicity against Triticum aestivum (wheat) at 30 g a.i./ha applied post-emergence measured after 21 days in presence of 1% Merge adjuvant; assay type: organism-based; conditions: in vivo, other, 504 h
[6] = tested on: Hordeum vulgare; test: Phytotoxicity against Hordeum vulgare (barley) at 30 g a.i./ha applied post-emergence measured after 21 days in presence of 1% Merge adjuvant; assay type: organism-based; conditions: in vivo, other, 504 h
[7] = tested on: Avena fatua; test: Post-emergence herbicidal activity against Avena fatua at 2000 g a.i./ha after 21 days; assay type: functional
[8] = tested on: Setaria faberi; test: Post-emergence herbicidal activity against Setaria faberi (Giant Foxtail) at 500 g a.i./ha after 21 days; assay type: functional
[9] = tested on: Avena fatua; test: Post-emergence herbicidal activity against Avena fatua at 500 g a.i./ha after 21 days; assay type: functional
[10] = tested on: Lolium perenne; test: Post-emergence herbicidal activity against Lolium perenne (perennial ryegrass) at 2000 g a.i./ha after 21 days; assay type: functional
[11] = tested on: Lolium perenne; test: Post-emergence herbicidal activity against Lolium perenne (perennial ryegrass) at 500 g a.i./ha after 21 days; assay type: functional
[12] = tested on: Setaria faberi; test: Post-emergence herbicidal activity against Setaria faberi (Giant Foxtail) at 2000 g a.i./ha after 21 days; assay type: functional
[13] = tested on: Hordeum vulgare; test: Phytotoxicity against Hordeum vulgare (barley) at 500 g a.i./ha applied post-emergence measured after 15 days; assay type: organism-based; conditions: in vivo, other, 360 h
[14] = tested on: Triticum aestivum; test: Phytotoxicity against Triticum aestivum (wheat) at 500 g a.i./ha applied post-emergence measured after 15 days; assay type: organism-based; conditions: in vivo, other, 360 h
[15] = tested on: Alopecurus myosuroides; test: Post-emergence herbicidal activity against Alopecurus myosuroides at 500 g a.i./ha measured after 15 days; assay type: functional
[16] = tested on: Setaria faberi; test: Post-emergence herbicidal activity against Setaria faberi (Giant Foxtail) at 500 g a.i./ha measured after 15 days; assay type: functional
[17] = tested on: Avena fatua; test: Post-emergence herbicidal activity against Avena fatua at 500 g a.i./ha measured after 15 days; assay type: functional
[18] = tested on: Lolium perenne; test: Post-emergence herbicidal activity against Lolium perenne (perennial ryegrass) at 500 g a.i./ha measured after 15 days; assay type: functional
[19] = tested on: Setaria faberi; test: Post-emergence herbicidal activity against Setaria faberi (Giant Foxtail) at 125 g a.i./ha measured after 21 days in presence of 0.2% X-77 adjuvant; assay type: functional
[20] = tested on: Hordeum vulgare; test: Phytotoxicity against Hordeum vulgare (barley) at 125 g a.i./ha applied post-emergence measured after 21 days in presence of 0.2% X-77 adjuvant; assay type: organism-based; conditions: in vivo, other, 504 h
[21] = tested on: Lolium perenne; test: Post-emergence herbicidal activity against Lolium perenne (perennial ryegrass) at 125 g a.i./ha measured after 21 days in presence of 0.2% X-77 adjuvant; assay type: functional
[22] = tested on: Avena fatua; test: Post-emergence herbicidal activity against Avena fatua at 125 g a.i./ha measured after 21 days in presence of 0.2% X-77 adjuvant; assay type: functional
[23] = tested on: Alopecurus myosuroides; test: Post-emergence herbicidal activity against Alopecurus myosuroides at 125 g a.i./ha measured after 21 days in presence of 0.2% X-77 adjuvant; assay type: functional
[24] = tested on: Triticum aestivum; test: Phytotoxicity against Triticum aestivum (wheat) at 125 g a.i./ha applied post-emergence measured after 21 days in presence of 0.2% X-77 adjuvant; assay type: organism-based; conditions: in vivo, other, 504 h
[25] = tested on: Hordeum vulgare; test: Phytotoxicity against Hordeum vulgare (barley) at 250 g a.i./ha applied post-emergence measured after 21 days in presence of 1% Merge adjuvant; assay type: organism-based; conditions: in vivo, other, 504 h
[26] = tested on: Lolium perenne; test: Post-emergence herbicidal activity against Lolium perenne (perennial ryegrass) at 250 g a.i./ha measured after 21 days in presence of 1% Merge adjuvant; assay type: functional
[27] = tested on: Setaria faberi; test: Post-emergence herbicidal activity against Setaria faberi (Giant Foxtail) at 250 g a.i./ha measured after 21 days in presence of 1% Merge adjuvant; assay type: functional
[28] = tested on: Avena fatua; test: Post-emergence herbicidal activity against Avena fatua at 250 g a.i./ha measured after 21 days in presence of 1% Merge adjuvant; assay type: functional
[29] = tested on: Triticum aestivum; test: Phytotoxicity against Triticum aestivum (wheat) at 250 g a.i./ha applied post-emergence measured after 21 days in presence of 1% Merge adjuvant; assay type: organism-based; conditions: in vivo, other, 504 h
[30] = tested on: Alopecurus myosuroides; test: Post-emergence herbicidal activity against Alopecurus myosuroides at 250 g a.i./ha measured after 21 days in presence of 1% Merge adjuvant; assay type: functional

Row | SMILES | Activity [7] [%] | Activity [8] [%] | Activity [9] [%] | Activity [10] [%] | Activity [11] [%] | Activity [12] [%] | Activity [13] [%] | Activity [14] [%] | Activity [15] [%] | Activity [16] [%] | Activity [17] [%] | Activity [18] [%] | further results
1 | CCOc1c(-c2c(CC)cc(C)cc2CC)c(=O)n2n1CCOCC2 |  |  |  |  |  |  |  |  |  |  |  |  | Activity [1]: 0%; Activity [2]: 0%; Activity [3]: 20%; Activity [4]: 0%; Activity [5]: 0%; Activity [6]: 0%
2 | Cc1cc(C)c(-c2c(OC(=O)C(C)(C)C)n3n(c2=O)CC[S+]([O-])CC3)c(C)c1 (stereo not drawn) | 80 | 40 | 20 | 50 | 20 | 80 |  |  |  |  |  |  | 
3 | Cc1cc(C)c(C2C(=O)N3CCCCCN3C2=O)c(C)c1 | 90 | 90 | 50 | 90 | 60 | 90 | 40 | 20 | 50 | 60 | 90 | 50 | 
4 | CCc1cc(C)cc(CC)c1C1C(=O)N2CCCCN2C1=O |  |  |  |  |  |  |  |  |  |  |  |  | Activity [19]: 80%; Activity [20]: 90%; Activity [21]: 90%; Activity [22]: 100%; Activity [23]: 90%; Activity [24]: 80%
5 | Cc1cc(C)c(-c2c(OC(=O)C(C)(C)C)n3n(c2=O)CCCCC3)c(C)c1 | 90 | 90 | 60 | 100 | 80 | 90 |  |  |  |  |  |  | 
6 | Cc1cc(C)c(C2C(=O)N3CCOCCN3C2=O)c(C)c1 | 100 | 80 | 80 | 100 | 90 | 100 |  |  |  |  |  |  | Activity [1]: 10%; Activity [25]: 20%; Activity [26]: 90%; Activity [2]: 50%; Activity [27]: 90%; Activity [3]: 80%; Activity [4]: 60%; Activity [28]: 90%; Activity [5]: 0%; Activity [6]: 0%; Activity [29]: 50%; Activity [30]: 80%
7 | Cc1cc(C)c(C2C(=O)N3CCOCN3C2=O)c(C)c1 (stereo not drawn) |  |  |  |  |  |  |  |  |  |  |  |  | Activity [25]: 0%; Activity [26]: 90%; Activity [27]: 90%; Activity [28]: 90%; Activity [29]: 20%; Activity [30]: 40%
8 | Cc1cc(C)c(C2C(=O)N3CCSCCN3C2=O)c(C)c1 | 90 | 90 | 60 | 90 | 50 | 100 |  |  |  |  |  |  | 
9 | CCc1cc(C)cc(CC)c1-c1c(OC(=O)OC(C)C)n2n(c1=O)CCOCC2 |  |  |  |  |  |  |  |  |  |  |  |  | Activity [1]: 80%; Activity [2]: 100%; Activity [3]: 100%; Activity [4]: 90%; Activity [5]: 0%; Activity [6]: 0%
10 | Cc1cc(C)c(C2C(=O)N3C[C@H]4CCCC[C@@H]4CN3C2=O)c(C)c1 |  |  |  |  |  |  | 50 | 50 | 60 | 80 | 50 | 60 | 
11 | Cc1cc(C)c(C2C(=O)N3CCN(C)CCN3C2=O)c(C)c1 | 10 | 40 | 0 | 60 | 10 | 90 |  |  |  |  |  |  | 
12 | Cc1cc(C)c(C2C(=O)N3CCCC(C)N3C2=O)c(C)c1 (stereo not drawn) |  |  |  |  |  |  | 80 | 20 | 40 | 40 | 90 | 90 | 
13 | Cc1cc(C)c(C2C(=O)N3CCC(C)CN3C2=O)c(C)c1 (stereo not drawn) |  |  |  |  |  |  | 90 | 50 | 90 | 50 | 90 | 90 | 
14 | COC1CN2C(=O)C(c3c(C)cc(C)cc3C)C(=O)N2C1 |  |  |  |  |  |  | 0 | 0 | 20 | 60 | 20 | 20 | 
15 | CCc1cc(CC)c(C2C(=O)N3CCCCN3C2=O)c(CC)c1 |  |  |  |  |  |  |  |  |  |  |  |  | Activity [19]: 50%; Activity [20]: 40%; Activity [21]: 60%; Activity [22]: 100%; Activity [23]: 90%; Activity [24]: 40%
